Test results reported in US8952024B2, “Herbicidal pyrimidone derivatives” (E I du Pont de Nemours and Company, priority 2009, dated 2015).

How the values were obtained:
Assay in all cases: Test E flooded paddy rice and weeds
Type in all cases: in vivo
[1] = system: water seeded rice seedlings (Oryza sativa cv. ‘Japonica—M202’); details: applied to paddy water, 21 days, scale 0 to 100
Excerpt: (§1) Three plastic pots (ca. 16-cm diameter) for each application were partially filled with sterilized Tama silt loam soil comprising a 35:50:15 ratio of sand, silt and clay and 2.6% organic matter. Separate plantings for each of the three pots were as follows. Seeds from the U.S. of ducksalad (Heteranthera limosa), sedge (smallflower umbrella sedge, Cyperus difformis), ricefield bulrush (Scirpus mucronatus) and redstem (purple redstem, Ammannia coccinea), were planted into one 16-cm pot for each rate. Seeds from the U.S. of flatsedge (rice flatsedge, Cyperus iria), sprangletop (bearded (i.e. Brdd.) sprangletop, Leptochloa fascicularis), one stand of 9 or 10 water seeded rice seedlings (Oryza sativa cv. ‘Japonica—M202’), and two stands of 3 or 4 transplanted rice seedlings (Oryza sativa cv. ‘Japonica—M202’) were planted into one 16-cm pot for each rate. Seeds from the U.S. of barnyardgrass (Echinochloa crus-galli), late watergrass (Echinochloa oryzicola), early watergrass (Echinochloa oryzoides) and junglerice (Echinochloa colona) were planted into one 16-cm pot for each rate. Plantings were sequential so that crop and weed species were at the 2.0 to 2.5-leaf stage at time of treatment.
(§2) Potted plants were grown in a greenhouse with day/night temperature settings of 30/27° C., and supplemental balanced lighting was provided to maintain a 16-hour photoperiod. Test pots were maintained in the greenhouse until test completion.
(§3) At time of treatment, test pots were flooded to 3 cm above the soil surface, treated by application of test compounds directly to the paddy water, and then maintained at that water depth for the duration of the test. Effects of treatments on rice and weeds were visually evaluated by comparison to untreated controls after 21 days. Plant response ratings, summarized in Table E, are based on a scale of 0 to 100 where 0 is no effect and 100 is complete control. A dash (-) response means no test result.

[2] = system: ricefield bulrush (Scirpus mucronatus); details: applied to paddy water, 21 days, scale 0 to 100
Excerpt: as §1, §2, §3

[3] = system: late watergrass (Echinochloa oryzicola); details: applied to paddy water, 21 days, scale 0 to 100
Excerpt: as §1, §2, §3

[4] = system: transplanted rice seedlings (Oryza sativa cv. ‘Japonica—M202’); details: applied to paddy water, 21 days, scale 0 to 100
Excerpt: as §1, §2, §3

[5] = system: redstem (purple redstem, Ammannia coccinea); details: applied to paddy water, 21 days, scale 0 to 100
Excerpt: as §1, §2, §3

[6] = system: early watergrass (Echinochloa oryzoides); details: applied to paddy water, 21 days, scale 0 to 100
Excerpt: as §1, §2, §3

[7] = system: barnyardgrass (Echinochloa crus-galli); details: applied to paddy water, 21 days
Excerpt: as §1, §2, §3

[8] = system: ducksalad (Heteranthera limosa); details: applied to paddy water, 21 days, scale 0 to 100
Excerpt: as §1, §2, §3

[9] = system: flatsedge (rice flatsedge, Cyperus iria); details: applied to paddy water, 21 days, scale 0 to 100
Excerpt: as §1, §2, §3

[10] = system: junglerice (Echinochloa colona); details: applied to paddy water, 21 days, scale 0 to 100
Excerpt: as §1, §2, §3

[11] = system: sedge (smallflower umbrella sedge, Cyperus difformis); details: applied to paddy water, 21 days, scale 0 to 100
Excerpt: as §1, §2, §3

COc1ccc(-n2c(-c3ccccc3)ncc(C(=O)C3=C(O)CCCC3=O)c2=O)cc1 [Compound 4, 5-[(2-hydroxy-6-oxo-cyclohexen-1-yl)carbonyl]-3-(4-methoxyphenyl)-2-phenyl-4(3H)-pyrimidinone]
Plant response rating, Rice, Water Seeded, Flood ([1]; 125 g ai/ha): 10 | Plant response rating, Rice, Water Seeded, Flood ([1]; 250 g ai/ha): 20 | Plant response rating, Rice, Water Seeded, Flood ([1]; 500 g ai/ha): 50 | Plant response rating, Bulrush, Ricefield, Flood ([2]; 125 g ai/ha): 40 | Plant response rating, Bulrush, Ricefield, Flood ([2]; 250 g ai/ha): 80 | Plant response rating, Bulrush, Ricefield, Flood ([2]; 500 g ai/ha): 80 | Plant response rating, Watergrass, Late, Flood ([3]; 125 g ai/ha): 0 | Plant response rating, Watergrass, Late, Flood ([3]; 250 g ai/ha): 15 | Plant response rating, Watergrass, Late, Flood ([3]; 500 g ai/ha): 60 | Plant response rating, Rice, Transplanted, Flood ([4]; 125 g ai/ha): 0 | Plant response rating, Rice, Transplanted, Flood ([4]; 250 g ai/ha): 0 | Plant response rating, Rice, Transplanted, Flood ([4]; 500 g ai/ha): 15 | Plant response rating, Redstem, Flood ([5]; 125 g ai/ha): 80 | Plant response rating, Redstem, Flood ([5]; 250 g ai/ha): 80 | Plant response rating, Redstem, Flood ([5]; 500 g ai/ha): 85 | Plant response rating, Watergrass, Early, Flood ([6]; 125 g ai/ha): 0 | Plant response rating, Watergrass, Early, Flood ([6]; 250 g ai/ha): 60 | Plant response rating, Watergrass, Early, Flood ([6]; 500 g ai/ha): 65 | Plant response rating, Barnyardgrass, Flood ([7]; 125 g ai/ha, scale 0 to 100): 0 | Plant response rating, Barnyardgrass, Flood ([7]; 250 g ai/ha, scale 0 to 100): 60 | Plant response rating, Barnyardgrass, Flood ([7]; 500 g ai/ha, scale 0 to 100 (0 no effect, 100 complete control)): 60 | Plant response rating, Ducksalad, Flood ([8]; 125 g ai/ha): 90 | Plant response rating, Ducksalad, Flood ([8]; 250 g ai/ha): 100 | Plant response rating, Ducksalad, Flood ([8]; 500 g ai/ha): 100 | Plant response rating, Flatsedge, Rice, Flood ([9]; 125 g ai/ha): 0 | Plant response rating, Flatsedge, Rice, Flood ([9]; 250 g ai/ha): 40 | Plant response rating, Flatsedge, Rice, Flood ([9]; 500 g ai/ha): 90 | Plant response rating, Junglerice, Flood ([10]; 125 g ai/ha): 0 | Plant response rating, Junglerice, Flood ([10]; 250 g ai/ha): 25 | Plant response rating, Junglerice, Flood ([10]; 500 g ai/ha): 50 | Plant response rating, Sedge, Umbrella, Flood ([11]; 125 g ai/ha): 90 | Plant response rating, Sedge, Umbrella, Flood ([11]; 250 g ai/ha): 95 | Plant response rating, Sedge, Umbrella, Flood ([11]; 500 g ai/ha): 100

Cc1ccc(-n2c(-c3ccccc3)ncc(C(=O)C3=C(O)CCCC3=O)c2=O)c(C)c1 [Compound 28]
Plant response rating, Rice, Water Seeded, Flood ([1]; 32 g ai/ha): 45 | Plant response rating, Rice, Water Seeded, Flood ([1]; 64 g ai/ha): 60 | Plant response rating, Rice, Water Seeded, Flood ([1]; 125 g ai/ha): 65 | Plant response rating, Rice, Water Seeded, Flood ([1]; 250 g ai/ha): 85 | Plant response rating, Bulrush, Ricefield, Flood ([2]; 32 g ai/ha): 20 | Plant response rating, Bulrush, Ricefield, Flood ([2]; 64 g ai/ha): 30 | Plant response rating, Bulrush, Ricefield, Flood ([2]; 125 g ai/ha): 35 | Plant response rating, Bulrush, Ricefield, Flood ([2]; 250 g ai/ha): 65 | Plant response rating, Watergrass, Late, Flood ([3]; 32 g ai/ha): 0 | Plant response rating, Watergrass, Late, Flood ([3]; 64 g ai/ha): 0 | Plant response rating, Watergrass, Late, Flood ([3]; 125 g ai/ha): 0 | Plant response rating, Watergrass, Late, Flood ([3]; 250 g ai/ha): 0 | Plant response rating, Rice, Transplanted, Flood ([4]; 32 g ai/ha): 0 | Plant response rating, Rice, Transplanted, Flood ([4]; 64 g ai/ha): 15 | Plant response rating, Rice, Transplanted, Flood ([4]; 125 g ai/ha): 15 | Plant response rating, Rice, Transplanted, Flood ([4]; 250 g ai/ha): 15 | Plant response rating, Redstem, Flood ([5]; 32 g ai/ha): 0 | Plant response rating, Redstem, Flood ([5]; 64 g ai/ha): 40 | Plant response rating, Redstem, Flood ([5]; 125 g ai/ha): 50 | Plant response rating, Redstem, Flood ([5]; 250 g ai/ha): 90 | Plant response rating, Watergrass, Early, Flood ([6]; 32 g ai/ha): 0 | Plant response rating, Watergrass, Early, Flood ([6]; 64 g ai/ha): 0 | Plant response rating, Watergrass, Early, Flood ([6]; 125 g ai/ha): 0 | Plant response rating, Watergrass, Early, Flood ([6]; 250 g ai/ha): 20 | Plant response rating, Barnyardgrass, Flood ([7]; 32 g ai/ha, scale 0 to 100): 0 | Plant response rating, Barnyardgrass, Flood ([7]; 64 g ai/ha, scale 0 to 100): 0 | Plant response rating, Barnyardgrass, Flood ([7]; 125 g ai/ha, scale 0 to 100): 0 | Plant response rating, Barnyardgrass, Flood ([7]; 250 g ai/ha, scale 0 to 100): 0 | Plant response rating, Ducksalad, Flood ([8]; 32 g ai/ha): 0 | Plant response rating, Ducksalad, Flood ([8]; 64 g ai/ha): 0 | Plant response rating, Ducksalad, Flood ([8]; 125 g ai/ha): 80 | Plant response rating, Ducksalad, Flood ([8]; 250 g ai/ha): 100 | Plant response rating, Flatsedge, Rice, Flood ([9]; 32 g ai/ha): 0 | Plant response rating, Flatsedge, Rice, Flood ([9]; 64 g ai/ha): 0 | Plant response rating, Flatsedge, Rice, Flood ([9]; 125 g ai/ha): 0 | Plant response rating, Flatsedge, Rice, Flood ([9]; 250 g ai/ha): 45 | Plant response rating, Junglerice, Flood ([10]; 32 g ai/ha): 0 | Plant response rating, Junglerice, Flood ([10]; 64 g ai/ha): 0 | Plant response rating, Junglerice, Flood ([10]; 125 g ai/ha): 0 | Plant response rating, Junglerice, Flood ([10]; 250 g ai/ha): 0 | Plant response rating, Sedge, Umbrella, Flood ([11]; 32 g ai/ha): 0 | Plant response rating, Sedge, Umbrella, Flood ([11]; 64 g ai/ha): 85 | Plant response rating, Sedge, Umbrella, Flood ([11]; 125 g ai/ha): 90 | Plant response rating, Sedge, Umbrella, Flood ([11]; 250 g ai/ha): 100

COc1ccc(-n2c(-c3ccccc3)ncc(C(=O)C3=C(O)CCCC3=O)c2=O)cc1OC [Compound 218]
Plant response rating, Rice, Water Seeded, Flood ([1]; 32 g ai/ha): 15 | Plant response rating, Rice, Water Seeded, Flood ([1]; 64 g ai/ha): 0 | Plant response rating, Rice, Water Seeded, Flood ([1]; 125 g ai/ha): 20 | Plant response rating, Rice, Water Seeded, Flood ([1]; 250 g ai/ha): 35 | Plant response rating, Bulrush, Ricefield, Flood ([2]; 32 g ai/ha): 80 | Plant response rating, Bulrush, Ricefield, Flood ([2]; 64 g ai/ha): 80 | Plant response rating, Bulrush, Ricefield, Flood ([2]; 125 g ai/ha): 90 | Plant response rating, Bulrush, Ricefield, Flood ([2]; 250 g ai/ha): 100 | Plant response rating, Watergrass, Late, Flood ([3]; 32 g ai/ha): 20 | Plant response rating, Watergrass, Late, Flood ([3]; 64 g ai/ha): 40 | Plant response rating, Watergrass, Late, Flood ([3]; 125 g ai/ha): 40 | Plant response rating, Watergrass, Late, Flood ([3]; 250 g ai/ha): 70 | Plant response rating, Rice, Transplanted, Flood ([4]; 32 g ai/ha): 0 | Plant response rating, Rice, Transplanted, Flood ([4]; 64 g ai/ha): 0 | Plant response rating, Rice, Transplanted, Flood ([4]; 125 g ai/ha): 0 | Plant response rating, Rice, Transplanted, Flood ([4]; 250 g ai/ha): 10 | Plant response rating, Redstem, Flood ([5]; 32 g ai/ha): 65 | Plant response rating, Redstem, Flood ([5]; 64 g ai/ha): 65 | Plant response rating, Redstem, Flood ([5]; 125 g ai/ha): 75 | Plant response rating, Redstem, Flood ([5]; 250 g ai/ha): 80 | Plant response rating, Watergrass, Early, Flood ([6]; 32 g ai/ha): 0 | Plant response rating, Watergrass, Early, Flood ([6]; 64 g ai/ha): 20 | Plant response rating, Watergrass, Early, Flood ([6]; 125 g ai/ha): 20 | Plant response rating, Watergrass, Early, Flood ([6]; 250 g ai/ha): 60 | Plant response rating, Barnyardgrass, Flood ([7]; 32 g ai/ha, scale 0 to 100): 0 | Plant response rating, Barnyardgrass, Flood ([7]; 64 g ai/ha, scale 0 to 100): 0 | Plant response rating, Barnyardgrass, Flood ([7]; 125 g ai/ha, scale 0 to 100): 30 | Plant response rating, Barnyardgrass, Flood ([7]; 250 g ai/ha, scale 0 to 100): 95 | Plant response rating, Ducksalad, Flood ([8]; 32 g ai/ha): 80 | Plant response rating, Ducksalad, Flood ([8]; 64 g ai/ha): 85 | Plant response rating, Ducksalad, Flood ([8]; 125 g ai/ha): 95 | Plant response rating, Ducksalad, Flood ([8]; 250 g ai/ha): 100 | Plant response rating, Flatsedge, Rice, Flood ([9]; 32 g ai/ha): 75 | Plant response rating, Flatsedge, Rice, Flood ([9]; 64 g ai/ha): 70 | Plant response rating, Flatsedge, Rice, Flood ([9]; 125 g ai/ha): 70 | Plant response rating, Flatsedge, Rice, Flood ([9]; 250 g ai/ha): 75 | Plant response rating, Junglerice, Flood ([10]; 32 g ai/ha): 0 | Plant response rating, Junglerice, Flood ([10]; 64 g ai/ha): 0 | Plant response rating, Junglerice, Flood ([10]; 125 g ai/ha): 65 | Plant response rating, Junglerice, Flood ([10]; 250 g ai/ha): 100 | Plant response rating, Sedge, Umbrella, Flood ([11]; 32 g ai/ha): 85 | Plant response rating, Sedge, Umbrella, Flood ([11]; 64 g ai/ha): 95 | Plant response rating, Sedge, Umbrella, Flood ([11]; 125 g ai/ha): 100 | Plant response rating, Sedge, Umbrella, Flood ([11]; 250 g ai/ha): 100
